The record followed here is patent publication US5364879A, “Medical uses of trioxolane and diperoxide compounds” (Cliveden Ltd., priority 1994, dated 1994).

On the set-up of data set [1]: species or system New Zealand White rabbits. The note with it: rabbit, in vivo.
Details of data set [2]: species or system New Zealand White rabbits. The note with it: rabbit, in vivo. This is another data set of the same source.
The next data set can be described thus: in vivo. The note with it: mouse.
The subject of the next data set is Salmonella. The data set is described as follows: microbe, parasite or virus in culture. Type of data set: cell-based, Salmonella spp.
In another data set the test system is human spermatozoa. The data set is described as follows: Effect on spermatozoa. Type of data set: cell-based.
A further data set deals with N. gonorrhoea. Put plainly: MIC by agar diffusion method. In kind it is cell-based, Neisseria gonorrhoea. The note with it: Neisseria. A general note: Agar diffusion results depend on both activity and mobility in agar.
The next data set has as its system Tri. canis. The data set is described as follows: microbe, parasite or virus in culture. In kind it is cell-based, Trichophyton canis. The note with it: Trichophyton.
The next data set relates to Ph. verrucose. Put plainly: microbe, parasite or virus in culture. The note with it: Phialophora. In kind it is cell-based, Phialophora verrucose.
Data set [3] concerns S. aureus. The data set is described as follows: microbe, parasite or virus in culture. Type of data set: cell-based. The note with it: Staphylococcus aureus.
A further data set has as its system Tri. violaceum. Put plainly: microbe, parasite or virus in culture. Type of data set: cell-based, Trichophyton violaceurn. The note with it: Trichophyton violaceum.
Data set [4] concerns Candida. The data set is described as follows: MIC in broth. The note with it: N = 2. Type of data set: cell-based, Candida spp.
Data set [5] has as its system EPEC/ETEC. Put plainly: MIC in broth. In kind it is cell-based, Enteropathogenic/enterotoxigenic Escherichia coli. The note with it: Escherichia coli, N = 5.
The next data set relates to Shigella. The data set is described as follows: microbe, parasite or virus in culture. In kind it is cell-based, Shigella spp.
A further data set concerns Leishmania major. Put plainly: Treatment of mice infected with Leishmania major. Type of data set: in vivo, Leishmania major (balb/c mice).
In another data set the test system is Pseudomonas. Put plainly: microbe, parasite or virus in culture. In kind it is cell-based, Pseudomonas spp.
In data set [6] the test system is Candida. Put plainly: microbe, parasite or virus in culture. In kind it is cell-based, Candida spp.
The next data set has as its system Archromobacter. The data set is described as follows: MIC by agar diffusion method. Type of data set: cell-based. The note with it: Achromobacter, N = 1.
A further data set concerns C. albicans. The data set is described as follows: MIC by agar diffusion method. Type of data set: cell-based. The note with it: Candida albicans, N = 5.
Data set [7] relates to Candida. The data set is described as follows: MIC in agar dilution. The note with it: N = 2. Type of data set: cell-based, Candida spp. (In general: In agar dilution the substance is mixed into plates at graded concentrations.)
Data set [8] relates to EPEC/ETEC. The data set is described as follows: MIC in agar dilution. The note with it: Escherichia coli, N = 5. Type of data set: cell-based, Enteropathogenic/enterotoxigenic Escherichia coli.
For data set [9], the system named is microorganisms which cause common infections. In kind it is cell-based.
Data set [10] concerns Myeloma cell line (x63 balb/c line). Put plainly: Effect on myeloma cell line. In kind it is cell-based.
Another data set concerns Klebisella. Put plainly: microbe, parasite or virus in culture. Type of data set: cell-based, Klebsiella spp. The note with it: Klebsiella.
For the next data set, the system named is lymphocytes. Put plainly: Immunomodulatory activity, bone marrow examination. In kind it is in vivo. The note with it: Balb/c mice.
The test system of data set [11] is S. aureus. The data set is described as follows: microbe, parasite or virus in culture. In kind it is cell-based. The note with it: Staphylococcus aureus, read-out: lowest concentration inhibiting at least one isolate.
Another data set has as its system Penicillium. The data set is described as follows: MIC by agar diffusion method. The note with it: N = 1. In kind it is cell-based, Penicillium spp.
In a further data set the test system is Cryptococcus. The data set is described as follows: MIC by agar diffusion method. The note with it: N = 1. In kind it is cell-based, Cryptoccus spp.
The test system of a further data set is S. epidermidis. Put plainly: MIC by agar diffusion method. In kind it is cell-based. The note with it: Staphylococcus epidermidis.
The conditions of data set [12]: mouse, in vivo, ip.
For another data set, the system named is Leishmania donova. Further details: species or system Leishmania donova (Balb/c mice). The note with it: mouse, in vivo.
A further data set concerns E. coli. The data set is described as follows: microbe, parasite or virus in culture. Type of data set: cell-based. The note with it: Escherichia coli.

The term LD50 denotes the dose expected to kill half of the subjects tested. Low readings indicate a more toxic substance, high ones a less toxic substance.

SMILES strings stand for the structures. Converted amounts (≈) assume the structure as drawn. Like-named read-outs stand apart in the source and are kept apart here.

Regarding `CC1(C)OOC(CCC(C)(O)C2OCOO2)O1` (centres unmarked) [linalool trioxolane], the ocular irritation entry in data set [1] is “non-irritant”. Besides, the “Primary Irritation Index (PII)” value in [2] was found to be 1.0. The molecule also had a 50% lethal dose (LD50) in “in vivo” of approximately 3000 mg/kg.

Turning to `CCC1OOC(CCO)O1` (stereo not drawn) [trioxolane derivative of cis 3-hexene-1-ol], the MBC in the data set on Salmonella is 2500 µg/mL (≈ 16900 µM); with S. aureus [3] it was 1250 µg/mL (≈ 8440 µM); against Shigella, 1250 µg/mL (≈ 8440 µM); in the data set with Pseudomonas, 1250 µg/mL (≈ 8440 µM); in the data set on Candida [6] it was 1250 µg/mL (≈ 8440 µM). Also, the “time within which human spermatozoa were killed” value with human spermatozoa is not above 1 min. The MIC in the data set on N. gonorrhoea (N = 49, number in parentheses, read-out: lowest concentration inhibiting at least one isolate) came out at 1.9 µg/mL (≈ 12.8 µM); in the data set with N. gonorrhoea (N = 49, read-out: MIC), 3.5 µg/mL (≈ 23.6 µM); against Tri. canis, 150 µg/mL (≈ 1010 µM); against Ph. verrucose, 150 µg/mL (≈ 1010 µM); against Tri. violaceum, 150 µg/mL (≈ 1010 µM); in the data set on Candida [4], 310 µg/mL (≈ 2090 µM). Moreover, the MIC with EPEC/ETEC [5] amounted to 620 µg/mL (≈ 4180 µM); with Archromobacter, 60 µg/mL (≈ 405 µM); in the data set on C. albicans, 31 µg/mL (≈ 209 µM); against Candida [7], 31 µg/mL (≈ 209 µM); against EPEC/ETEC [8] it was 31 µg/mL (≈ 209 µM); against Klebisella, 7 µg/mL (≈ 47.2 µM). The MIC was determined as 31 µg/mL (≈ 209 µM) with S. aureus [11]; 310 µg/mL (≈ 2090 µM) against Penicillium; 15 µg/mL (≈ 101 µM) in the data set on Cryptococcus; 31 µg/mL (≈ 209 µM) with S. epidermidis (read-out: lowest concentration inhibiting at least one isolate); 25 µg/mL (≈ 169 µM) in the data set on S. epidermidis (agar diffusion, N = 14, read-out: MIC); 120 µg/mL (≈ 810 µM) in the data set on E. coli. Further, the “lesions, Day 0” value was “Large lesions” in the data set on Leishmania major (IP, n = 15/group) and “Large lesions” in the data set with Leishmania major (topical, n = 15/group). Further, the “lesions, Day 14” value in the data set with Leishmania major (IP, n = 15/group) is on record as “Lesions scabbed”. Further, the “number dead, Day 14” value in the data set with Leishmania major (IP, n = 15/group) was found to be 2. Moreover, the “number with palate involvement, Day 14” value in the data set on Leishmania major (IP, n = 15/group) is 2. The “general condition, Day 14” value in the data set with Leishmania major (topical, n = 15/group) is “Animals healthy and”. The “activity compared with Geraniol trioxolane” value in [9] is “more active than Geraniol trioxolane”. The “activity compared with conventional drugs” value in data set [9] was “more active than conventional drugs”. Moreover, the “direct bioactivity, agar vs broth” value in [9] was “better in agar than in broth methods”. Moreover, in [9], the “effect of water on direct bioactivity” value was “significantly reduces”. Besides, in data set [9], the “relationship with resistance and sensitivity to conventional antibiotics” value is recorded as “no relationship”. Further, the “sensitivity of all the microorganisms tested” value in [9] was “uniformly sensitive”. In data set [10], the “time within which myeloma cell line was killed” value is not above 48 h. The “new clones of lymphocytes in bone marrow vs mice without any drug” value with lymphocytes is given as “increase in new clones of lymphocytes”. The minimum lethal dose in data set [12] amounted to 3000 mg/kg. Besides, the “tolerability in studies on LD50” value in data set [12] is “highly tolerated”. Also, the “clearing parasites from the viscera compared with Pentostam” value with Leishmania donova is reported as “perform better than Pentostam”.

As to `O.O.O.O.O.O.O.O.O.O=C([O-])[C@@H]1[O][Sb](=[O])([O][Sb]2(=[O])[O][C@H]([C@H](O)CO)[C@H](O)[C@H](C(=O)[O-])[O]2)[O][C@H]([C@H](O)CO)[C@@H]1O.[Na+].[Na+].[Na+]` (some centres unmarked) [Pentostam, reference compound], in the data set on Leishmania major (mouse, in vivo, ip), the “lesions, Day 14” value was “Large lesions”; the “number dead, Day 14” value was determined as 1; the “palate involvement, Day 14” value is “involvement”.
